Reference: patent publication US20260028336A1 (Arcus Biosciences, Inc., priority 2022, published 2026)

Molecular target: T1, Cbl-b (Homo sapiens, UniProt Q13191)
T1 construct: biotin (biotinylated)
Assay: Cbl-b probe displacement HTRF binding assay
Conditions: 0.4 nM biotinylated Cbl-b, 150 nM BODIPY probe
Method: The affinity with which compounds of the present dislcosure bind to Cbl-b was assessed using probe displacement homologous time resolved fluorescence (HTRF) assays. […] The assays were performed in assay buffer consisting of 20 mM Hepes, 150 mM NaCl, 0.01% Triton X-100, 0.5 mM TCEP, 0.01% BSA. On the day of the assay, a 20 point, 1:2 master serial dilution of each compound was prepared in DMSO to span a final concentration range of […] to 0 nM. Two hundred nanoliters of diluted compound was added to each well of a 384-well plate. Fifteen microliters of biotinylated-Cbl-b resuspended in assay buffer were added to each well and the plate incubated for 60 minutes at room temperature prior to addition of 5 μL of BODIPY™ probe in assay buffer. […] After a further 15 minutes of incubation at room temperature, 5 μl of Streptavidin-Terbium cryptate reagent at 5-fold final concentration was added to each well of the 384-well plate. Binding of a probe to Cbl-b results in an increase of HTRF signal. […] Percentage maximum activity in each test well was calculated based on DMSO (maximum activity, 0% displacement) and no protein control wells (baseline activity, 100% displacement). Binding affinity was determined from a dose response curve fitted using a standard four parameter fit equation.

T1 sequence (Q13191 whole entry, species assumed): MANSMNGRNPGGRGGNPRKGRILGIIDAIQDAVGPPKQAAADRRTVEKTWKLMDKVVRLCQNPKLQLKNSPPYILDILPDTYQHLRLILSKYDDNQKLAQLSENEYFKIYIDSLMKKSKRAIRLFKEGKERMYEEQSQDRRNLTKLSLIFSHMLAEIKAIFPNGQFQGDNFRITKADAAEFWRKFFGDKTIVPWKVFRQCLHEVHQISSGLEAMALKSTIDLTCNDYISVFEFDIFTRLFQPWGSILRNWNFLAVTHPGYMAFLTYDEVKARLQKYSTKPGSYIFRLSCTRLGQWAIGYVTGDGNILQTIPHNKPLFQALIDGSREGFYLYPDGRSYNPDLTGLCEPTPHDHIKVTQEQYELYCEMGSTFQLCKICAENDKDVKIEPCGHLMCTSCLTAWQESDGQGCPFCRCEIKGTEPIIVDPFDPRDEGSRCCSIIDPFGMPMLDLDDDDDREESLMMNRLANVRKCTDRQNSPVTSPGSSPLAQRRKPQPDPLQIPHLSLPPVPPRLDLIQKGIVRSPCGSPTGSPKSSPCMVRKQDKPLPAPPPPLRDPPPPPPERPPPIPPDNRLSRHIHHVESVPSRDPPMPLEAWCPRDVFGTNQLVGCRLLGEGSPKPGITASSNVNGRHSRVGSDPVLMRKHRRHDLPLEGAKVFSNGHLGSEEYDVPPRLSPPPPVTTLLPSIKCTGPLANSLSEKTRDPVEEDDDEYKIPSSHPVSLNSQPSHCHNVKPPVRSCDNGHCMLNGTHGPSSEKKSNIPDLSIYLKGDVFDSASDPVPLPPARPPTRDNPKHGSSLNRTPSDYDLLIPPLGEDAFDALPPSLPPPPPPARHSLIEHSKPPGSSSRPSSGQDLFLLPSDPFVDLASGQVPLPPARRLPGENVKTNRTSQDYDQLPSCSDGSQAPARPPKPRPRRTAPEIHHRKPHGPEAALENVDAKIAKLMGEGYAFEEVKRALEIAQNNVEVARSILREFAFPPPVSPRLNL

IC50 | SMILES
100 to 1000 nM | CC(Sc1nncn1C)c1cccc(-n2cc(C3CC3)c3cc(CN4CCC[C@H](C)C4)[nH]c3c2=O)c1 (stereo partly drawn) [Example 2, 4-cyclopropyl-2-[[(3S)-3-methylpiperidin-1-yl]methyl]-6-[3-[1-[(4-methyl-1,2,4-triazol-3-yl)sulfanyl]ethyl]phenyl]-1H-pyrrolo[2,3-c]pyridin-7-one]
< 100 nM | CC(=O)c1c[nH]c2c(=O)n(-c3cccc([C@]4(c5nncn5C)C[C@H](C)C4)c3)cc(C3CC3)c12 (single isomer, unassigned) [Example 22, 3-Acetyl-4-cyclopropyl-6-{3-[(1s,3r)-3-methyl-1-(4-methyl-4H-1,2,4-triazol-3-yl)cyclobutyl]phenyl}-1H,6H,7H-pyrrolo[2,3-c]pyridin-7-one]
100 to 1000 nM | Cn1cnnc1[C@]1(c2cccc(-n3ccc4c(C#N)c[nH]c4c3=O)c2)C[C@H](C)C1 (single isomer, unassigned) [Example 27, 7-Oxo-6-{3-[(1r,3s)-3-methyl-1-(4-methyl-4H-1,2,4-triazol-3-yl)cyclobutyl]phenyl}-1H,6H,7H-pyrrolo[2,3-c]pyridine-3-carbonitrile]
100 to 1000 nM | Cc1cn(-c2cccc([C@]3(c4nncn4C)C[C@@H](C)C3)c2)c(=O)c2[nH]ccc12 [Example 29, 4-methyl-6-{3-[(1r,3s)-3-methyl-1-(4-methyl-4H-1,2,4-triazol-3-yl)cyclobutyl]phenyl}-1H,6H,7H-pyrrolo[2,3-c]pyridin-7-one]
100 to 1000 nM | Cn1cnnc1[C@]1(c2cccc(-n3cc(C4CC4)c4c(S(C)(=O)=O)c[nH]c4c3=O)c2)C[C@@H](C)C1 (single isomer, unassigned) [Example 26, 4-Cyclopropyl-3-methanesulfonyl-6-{3-[(1s,3r)-3-methyl-1-(4-methyl-4H-1,2,4-triazol-3-yl)cyclobutyl]phenyl}-1H,6H,7H-pyrrolo[2,3-c]pyridin-7-one]
100 to 1000 nM | CC(O)c1c[nH]c2c(=O)n(-c3cccc([C@]4(c5nncn5C)C[C@@H](C)C4)c3)cc(C3CC3)c12 (single isomer, unassigned) [Example 23]
100 to 1000 nM | CC1CC(c2cccc(-n3cc(C4CC4)c4c(CN5CCC[C@H](C)C5)c[nH]c4c3=O)c2)(c2nncn2C)C1 (mixture of isomers) [Example 15, 4-Cyclopropyl-6-{3-[3-methyl-1-(4-methyl-4H-1,2,4-triazol-3-yl)cyclobutyl]phenyl}-3-{[(3S′)-3-methylpiperidin-1-yl]methyl}-1H,6H,7H-pyrrolo[2,3-c]pyridin-7-one]
1000 to 5000 nM | Cn1cnnc1[C@]1(c2cccc(-n3ccc4cc[nH]c4c3=O)c2)C[C@H](C)C1 (single isomer, unassigned) [Example 30, 6-{3-[(1r,3s)-3-methyl-1-(4-methyl-4H-1,2,4-triazol-3-yl)cyclobutyl]phenyl}-1H,6H,7H-pyrrolo[2,3-c]pyridin-7-one]
100 to 1000 nM | Cn1cnnc1[C@]1(c2cccc(-n3ccc4c(C#N)c[nH]c4c3=O)c2)C[C@@H](C)C1 (single isomer, unassigned) [Example 28, 7-Oxo-6-{3-[(1s,3r)-3-methyl-1-(4-methyl-4H-1,2,4-triazol-3-yl)cyclobutyl]phenyl}-1H,6H,7H-pyrrolo[2,3-c]pyridine-3-carbonitrile]
100 to 1000 nM | CC1CC(c2cccc(-n3cc(C4CC4)c4nc[nH]c4c3=O)c2)(c2nncn2C)C1 (stereo not shown) [Example 11, 7-cyclopropyl-5-{3-[(1r,3s)-3-methyl-1-(4-methyl-4H-1,2,4-triazol-3-yl)cyclobutyl]phenyl}-3H,4H,5H-imidazo[4,5-c]pyridin-4-one]
< 100 nM | C[C@H]1CCCN(Cc2cc3ncn(-c4cccc([C@]5(c6nncn6C(F)F)C[C@H](OC(F)F)C5)c4)c(=O)c3[nH]2)C1 [Example 153, 2—{[(S)-3-methyl-1-piperidyl]methyl}-6-(m-{(1r,3S)-3-difluoromethoxy-1-[4-(difluoromethyl)-4H-1,2,4-triazol-3-yl]cyclobutyl}phenyl)-1,6-dihydro-1,4,6-triaza-7-indenone]
100 to 1000 nM | CC1CC(c2cccc(-n3cc(C4CC4)c4c(CO)c[nH]c4c3=O)c2)(c2nncn2C)C1 (mixture of isomers) [Example 16, 4-Cyclopropyl-3-(hydroxymethyl)-6-{3-[3-methyl-1-(4-methyl-4H-1,2,4-triazol-3-yl)cyclobutyl]phenyl}-1H,6H,7H-pyrrolo[2,3-c]pyridin-7-one]
1000 to 5000 nM | Cn1cnnc1[C@]1(c2cccc(-n3cc(C4CC4)c4c(C(=O)O)c[nH]c4c3=O)c2)C[C@@H](C)C1 (single isomer, unassigned) [Example 20, 4-Cyclopropyl-7-oxo-6-{3-[(1s,3r)-3-methyl-1-(4-methyl-4H-1,2,4-triazol-3-yl)cyclobutyl]phenyl}-1H,6H,7H-pyrrolo[2,3-c]pyridine-3-carboxylic acid]
1000 to 5000 nM | Cn1cnnc1[C@]1(c2cccc(-n3ccc4cc[nH]c4c3=O)c2)C[C@@H](C)C1 (single isomer, unassigned) [Example 31, 6-{3-[(1s,3r)-3-methyl-1-(4-methyl-4H-1,2,4-triazol-3-yl)cyclobutyl]phenyl}-1H,6H,7H-pyrrolo[2,3-c]pyridin-7-one]
< 100 nM | CC1CC(c2cccc(-n3cc(C4CC4)c4cc(CN5CCCC6CC65)[nH]c4c3=O)c2)(c2nncn2C)C1 (stereo not shown) [Example 44, 2-({2-azabicyclo[4.1.0]heptan-2-yl}methyl)-4-cyclopropyl-6-{3-[3-methyl-1-(4-methyl-4H-1,2,4-triazol-3-yl)cyclobutyl]phenyl}-1H,6H,7H-pyrrolo[2,3-c]pyridin-7-one]
< 100 nM | Cn1cnnc1[C@]1(c2cccc(-n3cc(C(F)(F)F)c4c(S(C)(=O)=O)c[nH]c4c3=O)c2)C[C@H](C)C1 [Example 138, 3-Methanesulfonyl-6-{3-[(1R,3S)-3-methyl-1-(4-methyl-4H-1,2,4-triazol-3-yl)cyclobutyl]phenyl}-4-(trifluoromethyl)-1H,6H,7H-pyrrolo[2,3-c]pyridin-7-one]
1000 to 5000 nM | CC1CC(c2cccc(-n3nc(C4CC4)c4cc[nH]c4c3=O)c2)(c2nncn2C)C1 (stereo not shown) [Example 116, 4-cyclopropyl-6-{3-[3-methyl-1-(4-methyl-4H-1,2,4-triazol-3-yl)cyclobutyl]phenyl}-1H,6H,7H-pyrrolo[2,3-d]pyridazin-7-one]
< 100 nM | CC(=O)c1c[nH]c2c(=O)n(-c3cccc([C@]4(c5nncn5C)C[C@@H](C)C4)c3)cc(C3CC3)c12 (single isomer, unassigned) [Example 21, 3-Acetyl-4-cyclopropyl-6-{3-[(1r,3s)-3-methyl-1-(4-methyl-4H-1,2,4-triazol-3-yl)cyclobutyl]phenyl}-1H,6H,7H-pyrrolo[2,3-c]pyridin-7-one]
< 100 nM | Cn1cncc1-c1c[nH]c2c(=O)n(-c3cccc([C@]4(c5nncn5C)C[C@H](C)C4)c3)cc(C3CC3)c12 (single isomer, unassigned) [Example 35]
> 5000 nM | CC1CC(c2cccc(-n3cc(C4CC4)c4cc(CN5CCC[C@H](C)C5)n(C)c4c3=O)c2)(c2nncn2C)C1 (stereo partly drawn) [Example 5, 4-cyclopropyl-1-methyl-6-[3-[3-methyl-1-(4-methyl-1,2,4-triazol-3-yl)cyclobutyl]phenyl]-2-[[(3S)-3-methylpiperidin-1-yl]methyl]pyrrolo[2,3-c]pyridin-7-one]
< 100 nM | Cn1cnnc1C1(c2cccc(-n3cc(C4CC4)c4cc(CNC5CCC(F)(F)C5)[nH]c4c3=O)c2)CC(F)(F)C1 (stereo not shown) [Example 80, 4-cyclopropyl-6-{3-[3,3-difluoro-1-(4-methyl-4H-1,2,4-triazol-3-yl)cyclobutyl]phenyl}-2-{[(3,3-difluorocyclopentyl)amino]methyl}-1H,6H,7H-pyrrolo[2,3-c]pyridin-7-one]
< 100 nM | CC1CC(c2cccc(-n3cc(C(F)(F)F)c4c(C#N)c[nH]c4c3=O)c2)(c2nncn2C)C1 (mixture of isomers) [Example 136, 7-Oxo-6-{3-[(1R,3S)-3-methyl-1-(4-methyl-4H-1,2,4-triazol-3-yl)cyclobutyl]phenyl}-4-(trifluoromethyl)-1H,6H,7H-pyrrolo[2,3-c]pyridine-3-carbonitrile]
100 to 1000 nM | Cn1cnnc1[C@]1(c2cccc(-n3cc(C4CC4)c4c(C(F)(F)F)c[nH]c4c3=O)c2)C[C@H](C)C1 [Example 18, 4-Cyclopropyl-6-{3-[(1r,3s)-3-methyl-1-(4-methyl-4H-1,2,4-triazol-3-yl)cyclobutyl]phenyl}-3-(trifluoromethyl)-1H,6H,7H-pyrrolo[2,3-c]pyridin-7-one]
100 to 1000 nM | Cc1c[nH]c2c(=O)n(-c3cccc([C@]4(c5nncn5C)C[C@@H](C)C4)c3)cc(C3CC3)c12 [Example 17, 4-Cyclopropyl-3-methyl-6-{3-[(1r,3s)-3-methyl-1-(4-methyl-4H-1,2,4-triazol-3-yl)cyclobutyl]phenyl}-1H,6H,7H-pyrrolo[2,3-c]pyridin-7-one]

SMILES | IC50
CC1CC(c2cccc(-n3cc(C4CC4)c4cc(CN5CC6CC(C5)O6)[nH]c4c3=O)c2)(c2nncn2C)C1 (stereo not shown) [Example 53, 4-cyclopropyl-6-{3-[3-methyl-1-(4-methyl-4H-1,2,4-triazol-3-yl)cyclobutyl]phenyl}-2-({6-oxa-3-azabicyclo[3.1.1]heptan-3-yl}methyl)-1H,6H,7H-pyrrolo[2,3-c]pyridin-7-one] | < 100 nM
